# From US10538554B2, “Peptides and uses therefor as antiviral agents” (priority 2015, dated 2020)
# Bridge positions count the residues as written; N and C are the ends. Square brackets hold non-standard residues; d marks the D form. Peptide text beside a SMILES is read from it.
# Key:
# [1] = test system: H1N1 A1/Malaysia/302/1954; conditions: A1/Malaysia/302/1954, 48 h, 500 μM
# H9N2 A/Iran/16/2000 = conditions: 48 h, 500 μM
# H3N8 A/Miami/2/63 = conditions: A/Miami/2/63, 48 h, 500 μM
# H1N1 A/PR/8/1934 = conditions: A/PR/8/1934, 48 h, 1 μM
smiles,measurement,setting,value
"CC[C@@H](C)[C@H]1NC(=O)[C@@H](Cc2ccccc2)NC(=O)[C@@H](CCCNC(=N)N)NC(=O)[C@@H](CO)NC(=O)[C@@H](CCC(N)=O)NC(=O)[C@@H]([C@H](C)O)NC(=O)[C@H](NC(=O)[C@@H](CCCCN)NC(=O)[C@@H](CCCCN)NC(=O)[C@@H](CCCNC(=N)N)NC(=O)[C@H](N)CCCNC(=N)N)CSSC[C@H](C(=O)O)NC(=O)[C@@H](CC(N)=O)NC1=O [PSP II A14, H-rrkkctqsrfinc-OH] (H-[dR][dR][dK][dK][dC][dT][dQ][dS][dR][dF][dI][dN][dC]-OH; disulfide 5-13)",% inhibition H1N1,[1],73%
same,% inhibition H9N2,H9N2 A/Iran/16/2000,80%
same,% inhibition H3N8,H3N8 A/Miami/2/63,85%
"CC[C@@H](C)[C@H]1NC(=O)[C@@H](Cc2ccccc2)NC(=O)[C@@H](CCCNC(=N)N)NC(=O)[C@@H](CO)NC(=O)[C@@H](CCCNC(=N)N)NC(=O)[C@@H]([C@H](C)O)NC(=O)[C@H](NC(=O)[C@@H](CCCCN)NC(=O)[C@@H](CCCCN)NC(=O)[C@@H](CCCNC(=N)N)NC(=O)[C@H](N)CCCNC(=N)N)CSSC[C@H](C(=O)O)NC(=O)[C@@H](CC(N)=O)NC1=O [PSP II A15, H-rrkkctrsrfinc-OH] (H-[dR][dR][dK][dK][dC][dT][dR][dS][dR][dF][dI][dN][dC]-OH; disulfide 5-13)",% inhibition H1N1,[1],57.7%
same,% inhibition H9N2,H9N2 A/Iran/16/2000,90%
same,% inhibition H3N8,H3N8 A/Miami/2/63,79.4%
"CC[C@@H](C)[C@H]1NC(=O)[C@@H](Cc2ccccc2)NC(=O)[C@@H](CCCNC(=N)N)NC(=O)[C@@H](CO)NC(=O)[C@@H](CO)NC(=O)[C@@H]([C@H](C)O)NC(=O)[C@H](NC(=O)[C@@H](CCCCN)NC(=O)[C@@H](CCCCN)NC(=O)[C@@H](CCCNC(=N)N)NC(=O)[C@H](N)CCCNC(=N)N)CSSC[C@H](C(=O)O)NC(=O)[C@@H](CC(N)=O)NC1=O [PSP II A16, H-rrkkctssrfinc-OH] (H-[dR][dR][dK][dK][dC][dT][dS][dS][dR][dF][dI][dN][dC]-OH; disulfide 5-13)",% inhibition H1N1,[1],61.5%
same,% inhibition H9N2,H9N2 A/Iran/16/2000,90%
same,% inhibition H3N8,H3N8 A/Miami/2/63,61.8%
"CC[C@@H](C)[C@H]1NC(=O)[C@@H](Cc2ccccc2)NC(=O)[C@@H](CCCNC(=N)N)NC(=O)[C@@H](CO)NC(=O)[C@@H]([C@H](C)O)NC(=O)[C@@H]([C@H](C)O)NC(=O)[C@H](NC(=O)[C@@H](CCCCN)NC(=O)[C@@H](CCCCN)NC(=O)[C@@H](CCCNC(=N)N)NC(=O)[C@H](N)CCCNC(=N)N)CSSC[C@H](C(=O)O)NC(=O)[C@@H](CC(N)=O)NC1=O [PSP II A17, H-rrkkcttsrfinc-OH] (H-[dR][dR][dK][dK][dC][dT][dT][dS][dR][dF][dI][dN][dC]-OH; disulfide 5-13)",% inhibition H1N1,[1],67.3%
same,% inhibition H9N2,H9N2 A/Iran/16/2000,80%
same,% inhibition H3N8,H3N8 A/Miami/2/63,70.6%
"CC[C@@H](C)[C@H]1NC(=O)[C@@H](Cc2ccccc2)NC(=O)[C@@H](CCCNC(=N)N)NC(=O)[C@@H](CO)NC(=O)[C@@H](C(C)C)NC(=O)[C@@H]([C@H](C)O)NC(=O)[C@H](NC(=O)[C@@H](CCCCN)NC(=O)[C@@H](CCCCN)NC(=O)[C@@H](CCCNC(=N)N)NC(=O)[C@H](N)CCCNC(=N)N)CSSC[C@H](C(=O)O)NC(=O)[C@@H](CC(N)=O)NC1=O [PSP II A18, H-rrkkctvsrfinc-OH] (H-[dR][dR][dK][dK][dC][dT][dV][dS][dR][dF][dI][dN][dC]-OH; disulfide 5-13)",% inhibition H1N1,[1],42.3%
same,% inhibition H9N2,H9N2 A/Iran/16/2000,70%
same,% inhibition H3N8,H3N8 A/Miami/2/63,47%
"CC[C@@H](C)[C@H]1NC(=O)[C@@H](Cc2ccccc2)NC(=O)[C@@H](CCCNC(=N)N)NC(=O)[C@@H](CO)NC(=O)[C@@H](Cc2c[nH]c3ccccc23)NC(=O)[C@@H]([C@H](C)O)NC(=O)[C@H](NC(=O)[C@@H](CCCCN)NC(=O)[C@@H](CCCCN)NC(=O)[C@@H](CCCNC(=N)N)NC(=O)[C@H](N)CCCNC(=N)N)CSSC[C@H](C(=O)O)NC(=O)[C@@H](CC(N)=O)NC1=O [PSP II A19, H-rrkkctwsrfinc-OH] (H-[dR][dR][dK][dK][dC][dT][dW][dS][dR][dF][dI][dN][dC]-OH; disulfide 5-13)",% inhibition H1N1,[1],88.4%
same,% inhibition H9N2,H9N2 A/Iran/16/2000,100%
same,% inhibition H3N8,H3N8 A/Miami/2/63,82.4%
"CC[C@@H](C)[C@H]1NC(=O)[C@@H](Cc2ccccc2)NC(=O)[C@@H]([C@H](C)O)NC(=O)[C@@H](Cc2ccccc2)NC(=O)[C@@H](Cc2c[nH]c3ccccc23)NC(=O)[C@@H](C)NC(=O)[C@H](NC(=O)[C@H](CCCCN)NC(=O)[C@H](CCCCN)NC(=O)[C@H](CCCNC(=N)N)NC(=O)[C@@H](N)CCCNC(=N)N)CSSC[C@H](C(=O)O)NC(=O)[C@@H](CC(N)=O)NC1=O [PSP V A1, H-RRKKcawftfinc-OH] (H-RRKK[dC][dA][dW][dF][dT][dF][dI][dN][dC]-OH; disulfide 5-13)",% Inhibition,H1N1 A/PR/8/1934,<20%
"CC[C@@H](C)[C@H]1NC(=O)[C@@H](Cc2ccccc2)NC(=O)[C@@H]([C@H](C)O)NC(=O)[C@@H](Cc2ccccc2)NC(=O)[C@@H](Cc2c[nH]c3ccccc23)NC(=O)[C@@H](CS)NC(=O)[C@H](NC(=O)[C@H](CCCCN)NC(=O)[C@H](CCCCN)NC(=O)[C@H](CCCNC(=N)N)NC(=O)[C@@H](N)CCCNC(=N)N)CSSC[C@H](C(=O)O)NC(=O)[C@@H](CC(N)=O)NC1=O [PSP V A2, H-RRKKccwftfinc-OH] (H-RRKK[dC][dC][dW][dF][dT][dF][dI][dN][dC]-OH; disulfide 5-13)",% Inhibition,H1N1 A/PR/8/1934,<20%
"CC[C@@H](C)[C@H]1NC(=O)[C@@H](Cc2ccccc2)NC(=O)[C@@H]([C@H](C)O)NC(=O)[C@@H](Cc2ccccc2)NC(=O)[C@@H](Cc2c[nH]c3ccccc23)NC(=O)[C@@H](CC(=O)O)NC(=O)[C@H](NC(=O)[C@H](CCCCN)NC(=O)[C@H](CCCCN)NC(=O)[C@H](CCCNC(=N)N)NC(=O)[C@@H](N)CCCNC(=N)N)CSSC[C@H](C(=O)O)NC(=O)[C@@H](CC(N)=O)NC1=O [PSP V A3, H-RRKKcdwftfinc-OH] (H-RRKK[dC][dD][dW][dF][dT][dF][dI][dN][dC]-OH; disulfide 5-13)",% Inhibition,H1N1 A/PR/8/1934,<20%
"CC[C@@H](C)[C@H]1NC(=O)[C@@H](Cc2ccccc2)NC(=O)[C@@H]([C@H](C)O)NC(=O)[C@@H](Cc2ccccc2)NC(=O)[C@@H](Cc2c[nH]c3ccccc23)NC(=O)[C@@H](CCC(=O)O)NC(=O)[C@H](NC(=O)[C@H](CCCCN)NC(=O)[C@H](CCCCN)NC(=O)[C@H](CCCNC(=N)N)NC(=O)[C@@H](N)CCCNC(=N)N)CSSC[C@H](C(=O)O)NC(=O)[C@@H](CC(N)=O)NC1=O [PSP V A4, H-RRKKcewftfinc-OH] (H-RRKK[dC][dE][dW][dF][dT][dF][dI][dN][dC]-OH; disulfide 5-13)",% Inhibition,H1N1 A/PR/8/1934,27%
"CC[C@@H](C)[C@H]1NC(=O)[C@@H](Cc2ccccc2)NC(=O)[C@@H]([C@H](C)O)NC(=O)[C@@H](Cc2ccccc2)NC(=O)[C@@H](Cc2c[nH]c3ccccc23)NC(=O)[C@@H](Cc2ccccc2)NC(=O)[C@H](NC(=O)[C@H](CCCCN)NC(=O)[C@H](CCCCN)NC(=O)[C@H](CCCNC(=N)N)NC(=O)[C@@H](N)CCCNC(=N)N)CSSC[C@H](C(=O)O)NC(=O)[C@@H](CC(N)=O)NC1=O [PSP V A5, H-RRKKcfWftfinc-OH] (H-RRKK[dC][dF][dW][dF][dT][dF][dI][dN][dC]-OH; disulfide 5-13)",% Inhibition,H1N1 A/PR/8/1934,57%
"CC[C@@H](C)[C@H]1NC(=O)[C@@H](Cc2ccccc2)NC(=O)[C@@H]([C@H](C)O)NC(=O)[C@@H](Cc2ccccc2)NC(=O)[C@@H](Cc2c[nH]c3ccccc23)NC(=O)CNC(=O)[C@H](NC(=O)[C@H](CCCCN)NC(=O)[C@H](CCCCN)NC(=O)[C@H](CCCNC(=N)N)NC(=O)[C@@H](N)CCCNC(=N)N)CSSC[C@H](C(=O)O)NC(=O)[C@@H](CC(N)=O)NC1=O [PSP V A6, H-RRKKcGwftfinc-OH] (H-RRKK[dC]G[dW][dF][dT][dF][dI][dN][dC]-OH; disulfide 5-13)",% Inhibition,H1N1 A/PR/8/1934,<20%
"CC[C@@H](C)[C@H]1NC(=O)[C@@H](Cc2ccccc2)NC(=O)[C@@H]([C@H](C)O)NC(=O)[C@@H](Cc2ccccc2)NC(=O)[C@@H](Cc2c[nH]c3ccccc23)NC(=O)[C@@H](Cc2c[nH]cn2)NC(=O)[C@H](NC(=O)[C@H](CCCCN)NC(=O)[C@H](CCCCN)NC(=O)[C@H](CCCNC(=N)N)NC(=O)[C@@H](N)CCCNC(=N)N)CSSC[C@H](C(=O)O)NC(=O)[C@@H](CC(N)=O)NC1=O [PSP V A7, H-RRKKchwitfinc-OH] (H-RRKK[dC][dH][dW][dF][dT][dF][dI][dN][dC]-OH; disulfide 5-13)",% Inhibition,H1N1 A/PR/8/1934,67%
"CC[C@@H](C)[C@H]1NC(=O)[C@@H](Cc2ccccc2)NC(=O)[C@@H]([C@H](C)O)NC(=O)[C@@H](Cc2ccccc2)NC(=O)[C@@H](Cc2c[nH]c3ccccc23)NC(=O)[C@@H]([C@H](C)CC)NC(=O)[C@H](NC(=O)[C@H](CCCCN)NC(=O)[C@H](CCCCN)NC(=O)[C@H](CCCNC(=N)N)NC(=O)[C@@H](N)CCCNC(=N)N)CSSC[C@H](C(=O)O)NC(=O)[C@@H](CC(N)=O)NC1=O [PSP V A8, H-RRKKciwftfinc-OH] (H-RRKK[dC][dI][dW][dF][dT][dF][dI][dN][dC]-OH; disulfide 5-13)",% Inhibition,H1N1 A/PR/8/1934,20%
"CC[C@@H](C)[C@H]1NC(=O)[C@@H](Cc2ccccc2)NC(=O)[C@@H]([C@H](C)O)NC(=O)[C@@H](Cc2ccccc2)NC(=O)[C@@H](Cc2c[nH]c3ccccc23)NC(=O)[C@@H](CCCCN)NC(=O)[C@H](NC(=O)[C@H](CCCCN)NC(=O)[C@H](CCCCN)NC(=O)[C@H](CCCNC(=N)N)NC(=O)[C@@H](N)CCCNC(=N)N)CSSC[C@H](C(=O)O)NC(=O)[C@@H](CC(N)=O)NC1=O [PSP V A9, H-RRKKckwftfinc-OH] (H-RRKK[dC][dK][dW][dF][dT][dF][dI][dN][dC]-OH; disulfide 5-13)",% Inhibition,H1N1 A/PR/8/1934,77%
"CC[C@@H](C)[C@H]1NC(=O)[C@@H](Cc2ccccc2)NC(=O)[C@@H]([C@H](C)O)NC(=O)[C@@H](Cc2ccccc2)NC(=O)[C@@H](Cc2c[nH]c3ccccc23)NC(=O)[C@@H](CC(C)C)NC(=O)[C@H](NC(=O)[C@H](CCCCN)NC(=O)[C@H](CCCCN)NC(=O)[C@H](CCCNC(=N)N)NC(=O)[C@@H](N)CCCNC(=N)N)CSSC[C@H](C(=O)O)NC(=O)[C@@H](CC(N)=O)NC1=O [PSP V A10, H-RRKKclwftfinc-OH] (H-RRKK[dC][dL][dW][dF][dT][dF][dI][dN][dC]-OH; disulfide 5-13)",% Inhibition,H1N1 A/PR/8/1934,65%
